The NIST ThermoML archive (doi:10.1016/j.jct.2009.09.006)
Numbers after ± are expanded uncertainties.

Experiments:
[1] = Crystal; DTA
[2] = Molar enthalpy of transition or fusion; details: Crystal; DSC

## CCCCn1cc[n+](C)c1.Cc1ccc(S(=O)(=O)[O-])cc1 [1-butyl-3-methylimidazolium tosylate]
[1]
  Normal melting temperature: 57.01 ± 0.39 °C
[2]
  Molar enthalpy of transition or fusion: 3.91 ± 0.108 kcal/mol
